Reference: article PMC12038855, “Synthesis of 4-azido sialic acid for testing against Siglec-7 and in metabolic oligosaccharide engineering” (RSC Chemical Biology, 2025)

Biological target: T1, Siglec-7 (Homo sapiens, UniProt Q9Y286)
T1 construct: gene SIGLEC7; recombinant Siglec-7-Fc soluble protein
Assay: concentration-independent native mass spectrometry (COIN-CaR-ESI-MS)
Assay type: binding

T1 sequence (Q9Y286 19-353 limits assumed): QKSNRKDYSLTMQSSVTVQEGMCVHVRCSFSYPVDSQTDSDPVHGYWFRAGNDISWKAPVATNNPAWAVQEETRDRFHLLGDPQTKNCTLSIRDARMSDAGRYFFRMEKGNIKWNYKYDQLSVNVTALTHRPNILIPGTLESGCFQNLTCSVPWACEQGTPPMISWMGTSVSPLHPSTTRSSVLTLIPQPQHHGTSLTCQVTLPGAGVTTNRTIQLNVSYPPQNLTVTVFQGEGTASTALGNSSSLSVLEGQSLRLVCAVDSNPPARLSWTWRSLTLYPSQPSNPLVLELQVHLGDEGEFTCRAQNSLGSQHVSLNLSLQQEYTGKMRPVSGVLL

Kd [µM]	SMILES
115 ± 44	CC(=O)N[C@H]1[C@@H](OCCNC(=O)OCc2ccccc2)O[C@H](CO)[C@H](O)[C@@H]1O[C@@H]1O[C@H](CO)[C@H](O)[C@H](O[C@]2(C(=O)O)C[C@H](N=[N+]=[N-])[C@@H](NC(C)=O)[C@H]([C@H](O)[C@H](O)CO)O2)[C@H]1O [compound 13, 2-(N-benzyloxycarbonylamino)ethyl 5-acetamido-4-azido-3,4,5 trideoxy-D-glycero-α-D-galacto-nonulopyranosyl-(2–3)-[β-D-galactopyranosyl]-(1–3)-2 acetamido-2-deoxy-α-D-galactopyranoside]
88 ± 31	CC(=O)N[C@H]1[C@@H](OCCNC(=O)OCc2ccccc2)O[C@H](CO)[C@H](O)[C@@H]1O[C@@H]1O[C@H](CO)[C@H](O)[C@H](O[C@]2(C(=O)O)C[C@H](O)[C@@H](NC(C)=O)[C@H]([C@H](O)[C@H](O)CO)O2)[C@H]1O [compound 14, 2-(N-benzyloxycarbonylamino)ethyl 5 acetamido-3,5-dideoxy-D-glycero-α-D-galacto-nonulopyranosyl-(2–3)-[(β-D-galactopyranosyl)]-(1–3)-2-acetamido-2-deoxy-α-D-galactopyranoside]
